Source: ChEMBL document CHEMBL4229394 (Bioorg Med Chem Lett, 2018)
One block for each compound: values may come before it.

Experiments:
GABA-B receptor = GABA-B receptor (Homo sapiens, UniProt O75899+Q9UBS5); experiment: Agonist activity at human GABA-B1/B2 receptor expressed in HEK293/Cre-luc cells assessed as inhibition of forskolin-stimulated cAMP accumulation after 3 hrs by luciferase reporter gene assay; assay type: cell-based
[1] = target: GABA-A receptor; alpha-1/beta-2/gamma-2 (Rattus norvegicus, UniProt P18508+P62813+P63138); experiment: Agonist activity at rat GFP-fused GABA-A alpha1/beta2/gamma2 receptor expressed in human tsA201 cells at -60 mV holding potential by whole-cell voltage clamp method; assay type: cell-based
Sequence of GABA-A receptor; alpha-1/beta-2/gamma-2 (P18508 whole entry, the tested form may be a part): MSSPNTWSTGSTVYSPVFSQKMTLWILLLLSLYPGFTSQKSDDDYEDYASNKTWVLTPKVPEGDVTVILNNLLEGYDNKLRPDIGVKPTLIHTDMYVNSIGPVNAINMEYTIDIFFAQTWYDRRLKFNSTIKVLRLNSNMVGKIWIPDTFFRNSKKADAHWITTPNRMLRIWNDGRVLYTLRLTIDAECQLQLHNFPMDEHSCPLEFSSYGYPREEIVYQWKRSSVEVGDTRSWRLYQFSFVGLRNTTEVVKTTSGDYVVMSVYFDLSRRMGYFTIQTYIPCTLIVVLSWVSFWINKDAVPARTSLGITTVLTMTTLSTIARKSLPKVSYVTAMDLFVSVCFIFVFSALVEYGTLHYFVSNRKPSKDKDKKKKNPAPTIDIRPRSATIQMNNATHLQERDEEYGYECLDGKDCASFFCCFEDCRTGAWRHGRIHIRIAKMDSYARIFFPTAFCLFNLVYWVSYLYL
Sequence of GABA-A receptor; alpha-1/beta-2/gamma-2 (P62813 whole entry, the tested form may be a part): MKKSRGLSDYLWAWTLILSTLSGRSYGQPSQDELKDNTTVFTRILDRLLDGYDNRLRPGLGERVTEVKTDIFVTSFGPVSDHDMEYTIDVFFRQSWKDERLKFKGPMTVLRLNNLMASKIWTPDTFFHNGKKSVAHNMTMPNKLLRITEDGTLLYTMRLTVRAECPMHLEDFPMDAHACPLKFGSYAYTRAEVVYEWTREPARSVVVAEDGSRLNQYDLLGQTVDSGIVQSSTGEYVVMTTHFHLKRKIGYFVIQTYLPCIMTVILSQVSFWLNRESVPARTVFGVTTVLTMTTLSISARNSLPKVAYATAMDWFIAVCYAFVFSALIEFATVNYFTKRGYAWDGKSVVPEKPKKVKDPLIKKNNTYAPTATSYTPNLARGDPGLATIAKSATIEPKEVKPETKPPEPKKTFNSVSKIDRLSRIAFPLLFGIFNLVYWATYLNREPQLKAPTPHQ
Sequence of GABA-A receptor; alpha-1/beta-2/gamma-2 (P63138 whole entry, the tested form may be a part): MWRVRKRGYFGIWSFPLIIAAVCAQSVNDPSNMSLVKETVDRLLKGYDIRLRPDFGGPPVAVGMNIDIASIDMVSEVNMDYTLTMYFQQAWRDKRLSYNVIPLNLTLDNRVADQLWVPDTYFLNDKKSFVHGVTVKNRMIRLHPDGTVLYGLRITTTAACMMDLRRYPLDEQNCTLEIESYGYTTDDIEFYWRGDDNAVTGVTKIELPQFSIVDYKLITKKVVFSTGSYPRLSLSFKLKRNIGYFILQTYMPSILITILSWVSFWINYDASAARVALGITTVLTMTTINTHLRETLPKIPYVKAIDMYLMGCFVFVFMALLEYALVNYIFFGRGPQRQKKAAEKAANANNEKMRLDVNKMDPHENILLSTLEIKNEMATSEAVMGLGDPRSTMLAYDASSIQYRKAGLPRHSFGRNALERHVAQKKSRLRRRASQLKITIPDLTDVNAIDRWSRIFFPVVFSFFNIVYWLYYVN

HEK293 = experiment: Cytotoxicity against HEK293 cells co-expressing human GABA-B1/B2 receptor and Cre-luc plasmid at 50 to 100 uM after 3 hrs by CellTiter 96 aqueous one solution reagent based assay; assay type: cell-based; settings: hek293, 3 h
[2] = target: Histamine H2 receptor (Homo sapiens) (UniProt P25021); experiment: Inhibition of H2 receptor (unknown origin) by radio ligand displacement assay relative to control; settings: concentration not given here
[3] = target: Sodium-dependent serotonin transporter (Homo sapiens) (UniProt P31645); experiment: Inhibition of SERT (unknown origin) by radio ligand displacement assay relative to control; settings: concentration not given here
[4] = target: 5-hydroxytryptamine receptor 7 (Homo sapiens) (UniProt P34969); experiment: Inhibition of 5-HT7 receptor (unknown origin) by radio ligand displacement assay relative to control; settings: concentration not given here
[5] = target: Beta-3 adrenergic receptor (Homo sapiens) (UniProt P13945); experiment: Inhibition of beta-3 adrenergic receptor (unknown origin) by radio ligand displacement assay relative to control; settings: concentration not given here
[6] = target: Sigma non-opioid intracellular receptor 1 (Rattus norvegicus) (UniProt Q9R0C9); experiment: Inhibition of rat sigma-1 receptor by radio ligand displacement assay relative to control; settings: concentration not given here
[7] = target: 5-hydroxytryptamine receptor 1D (Homo sapiens) (UniProt P28221); experiment: Inhibition of 5-HT1D receptor (unknown origin) by radio ligand displacement assay relative to control; settings: concentration not given here
[8] = target: 5-hydroxytryptamine receptor 1B (Homo sapiens) (UniProt P28222); experiment: Inhibition of 5-HT1B receptor (unknown origin) by radio ligand displacement assay relative to control; settings: concentration not given here
[9] = target: Muscarinic acetylcholine receptor M5 (Homo sapiens) (UniProt P08912); experiment: Inhibition of M5 receptor (unknown origin) by radio ligand displacement assay relative to control; settings: concentration not given here
[10] = target: Muscarinic acetylcholine receptor M1 (Homo sapiens) (UniProt P11229); experiment: Inhibition of M1 receptor (unknown origin) by radio ligand displacement assay relative to control; settings: concentration not given here
[11] = target: Histamine H3 receptor (Homo sapiens) (UniProt Q9Y5N1); experiment: Inhibition of H3 receptor (unknown origin) by radio ligand displacement assay relative to control; settings: concentration not given here
[12] = target: Alpha-1A adrenergic receptor (Homo sapiens) (UniProt P35348); experiment: Inhibition of alpha-1A adrenergic receptor (unknown origin) by radio ligand displacement assay relative to control; settings: concentration not given here
[13] = target: Alpha-2A adrenergic receptor (Homo sapiens) (UniProt P08913); experiment: Inhibition of alpha-2A adrenergic receptor (unknown origin) by radio ligand displacement assay relative to control; settings: concentration not given here
[14] = target: Histamine H1 receptor (Homo sapiens) (UniProt P35367); experiment: Inhibition of H1 receptor (unknown origin) by radio ligand displacement assay relative to control; settings: concentration not given here
[15] = target: 5-hydroxytryptamine receptor 1A (Homo sapiens) (UniProt P08908); experiment: Inhibition of 5-HT1A receptor (unknown origin) by radio ligand displacement assay relative to control; settings: concentration not given here
[16] = target: 5-hydroxytryptamine receptor 3A (Homo sapiens) (UniProt P46098); experiment: Inhibition of 5-HT3 receptor (unknown origin) by radio ligand displacement assay relative to control; settings: concentration not given here
[17] = target: D(4) dopamine receptor (Homo sapiens) (UniProt P21917); experiment: Inhibition of D4 receptor (unknown origin) by radio ligand displacement assay relative to control; settings: concentration not given here
[18] = target: D(3) dopamine receptor (Homo sapiens) (UniProt P35462); experiment: Inhibition of D3 receptor (unknown origin) by radio ligand displacement assay relative to control; settings: concentration not given here
[19] = target: 5-hydroxytryptamine receptor 2A (Homo sapiens) (UniProt P28223); experiment: Inhibition of 5-HT2A receptor (unknown origin) by radio ligand displacement assay relative to control; settings: concentration not given here
[20] = target: Mu-type opioid receptor (Homo sapiens) (UniProt P35372); experiment: Inhibition of MOR (unknown origin) by radio ligand displacement assay relative to control; settings: concentration not given here
[21] = target: Sodium-dependent noradrenaline transporter (Homo sapiens) (UniProt P23975); experiment: Inhibition of NET (unknown origin) by radio ligand displacement assay relative to control; settings: concentration not given here
[22] = target: 5-hydroxytryptamine receptor 1E (Homo sapiens) (UniProt P28566); experiment: Inhibition of 5-HT1E receptor (unknown origin) by radio ligand displacement assay relative to control; settings: concentration not given here
[23] = target: Muscarinic acetylcholine receptor M2 (Homo sapiens) (UniProt P08172); experiment: Inhibition of M2 receptor (unknown origin) by radio ligand displacement assay relative to control; settings: concentration not given here
[24] = target: Muscarinic acetylcholine receptor M4 (Homo sapiens) (UniProt P08173); experiment: Inhibition of M4 receptor (unknown origin) by radio ligand displacement assay relative to control; settings: concentration not given here
[25] = target: Sigma intracellular receptor 2 (Rattus norvegicus) (UniProt Q5U3Y7); experiment: Inhibition of rat sigma-2 receptor by radio ligand displacement assay relative to control; settings: concentration not given here
Sequence of Sigma intracellular receptor 2 (Rattus norvegicus) (Q5U3Y7 whole entry): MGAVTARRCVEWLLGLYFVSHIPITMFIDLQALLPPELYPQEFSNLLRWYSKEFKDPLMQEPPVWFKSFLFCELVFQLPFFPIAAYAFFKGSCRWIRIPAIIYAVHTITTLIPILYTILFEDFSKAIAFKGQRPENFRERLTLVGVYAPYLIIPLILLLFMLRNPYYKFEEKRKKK

[26] = target: D(1A) dopamine receptor (Homo sapiens) (UniProt P21728); experiment: Inhibition of D1 receptor (unknown origin) by radio ligand displacement assay relative to control; settings: concentration not given here
Sequence of D(1A) dopamine receptor (Homo sapiens) (P21728 whole entry): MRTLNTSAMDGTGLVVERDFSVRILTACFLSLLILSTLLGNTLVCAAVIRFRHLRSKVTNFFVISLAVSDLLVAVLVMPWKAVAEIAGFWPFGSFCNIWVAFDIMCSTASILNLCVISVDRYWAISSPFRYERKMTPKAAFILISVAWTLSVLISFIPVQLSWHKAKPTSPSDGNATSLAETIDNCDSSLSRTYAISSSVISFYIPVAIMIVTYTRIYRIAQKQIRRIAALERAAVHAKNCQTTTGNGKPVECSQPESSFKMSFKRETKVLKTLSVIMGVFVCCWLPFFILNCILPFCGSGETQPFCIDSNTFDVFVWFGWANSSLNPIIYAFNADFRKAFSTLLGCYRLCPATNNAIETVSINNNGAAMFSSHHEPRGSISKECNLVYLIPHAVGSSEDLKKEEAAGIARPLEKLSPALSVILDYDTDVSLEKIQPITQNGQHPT

[27] = target: Alpha-1B adrenergic receptor (Homo sapiens) (UniProt P35368); experiment: Inhibition of alpha-1B adrenergic receptor (unknown origin) by radio ligand displacement assay relative to control; settings: concentration not given here
[28] = target: 5-hydroxytryptamine receptor 6 (Homo sapiens) (UniProt P50406); experiment: Inhibition of 5-HT6 receptor (unknown origin) by radio ligand displacement assay relative to control; settings: concentration not given here
[29] = target: Muscarinic acetylcholine receptor M3 (Homo sapiens) (UniProt P20309); experiment: Inhibition of M3 receptor (unknown origin) by radio ligand displacement assay relative to control; settings: concentration not given here
[30] = target: 5-hydroxytryptamine receptor 5A (Homo sapiens) (UniProt P47898); experiment: Inhibition of 5-HT5A receptor (unknown origin) by radio ligand displacement assay relative to control; settings: concentration not given here
[31] = target: Alpha-1D adrenergic receptor (Homo sapiens) (UniProt P25100); experiment: Inhibition of alpha-1D adrenergic receptor (unknown origin) by radio ligand displacement assay relative to control; settings: concentration not given here
[32] = target: Sodium-dependent dopamine transporter (Homo sapiens) (UniProt Q01959); experiment: Inhibition of DAT (unknown origin) by radio ligand displacement assay relative to control; settings: concentration not given here
[33] = target: Beta-2 adrenergic receptor (Homo sapiens) (UniProt P07550); experiment: Inhibition of beta-2 adrenergic receptor (unknown origin) by radio ligand displacement assay relative to control; settings: concentration not given here
[34] = target: 5-hydroxytryptamine receptor 2C (Homo sapiens) (UniProt P28335); experiment: Inhibition of 5-HT2C receptor (unknown origin) by radio ligand displacement assay relative to control; settings: concentration not given here
[35] = target: Kappa-type opioid receptor (Homo sapiens) (UniProt P41145); experiment: Inhibition of KOR (unknown origin) by radio ligand displacement assay relative to control; settings: concentration not given here
[36] = target: Histamine H4 receptor (Homo sapiens) (UniProt Q9H3N8); experiment: Inhibition of H4 receptor (unknown origin) by radio ligand displacement assay relative to control; settings: concentration not given here
[37] = target: Delta-type opioid receptor (Homo sapiens) (UniProt P41143); experiment: Inhibition of DOR (unknown origin) by radio ligand displacement assay relative to control; settings: concentration not given here
[38] = target: D(1B) dopamine receptor (Homo sapiens) (UniProt P21918); experiment: Inhibition of D5 receptor (unknown origin) by radio ligand displacement assay relative to control; settings: concentration not given here
[39] = target: D(2) dopamine receptor (Homo sapiens) (UniProt P14416); experiment: Inhibition of D2 receptor (unknown origin) by radio ligand displacement assay relative to control; settings: concentration not given here
Sequence of D(2) dopamine receptor (Homo sapiens) (P14416 whole entry): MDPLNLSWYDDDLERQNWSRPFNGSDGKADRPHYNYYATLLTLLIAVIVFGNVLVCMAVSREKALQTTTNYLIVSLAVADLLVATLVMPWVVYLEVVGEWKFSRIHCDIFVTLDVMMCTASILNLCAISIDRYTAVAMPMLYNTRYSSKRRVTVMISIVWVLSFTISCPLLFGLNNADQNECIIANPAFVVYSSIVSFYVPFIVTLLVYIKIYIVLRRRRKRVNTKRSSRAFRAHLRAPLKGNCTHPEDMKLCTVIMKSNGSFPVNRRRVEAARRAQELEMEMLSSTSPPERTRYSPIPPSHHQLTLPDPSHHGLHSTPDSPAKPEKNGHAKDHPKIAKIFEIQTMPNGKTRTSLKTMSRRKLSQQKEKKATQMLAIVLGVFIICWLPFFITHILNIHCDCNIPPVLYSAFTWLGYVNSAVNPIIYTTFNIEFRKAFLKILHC

[40] = target: Beta-1 adrenergic receptor (Homo sapiens) (UniProt P08588); experiment: Inhibition of beta-1 adrenergic receptor (unknown origin) by radio ligand displacement assay relative to control; settings: concentration not given here
[41] = target: 5-hydroxytryptamine receptor 2B (Homo sapiens) (UniProt P41595); experiment: Inhibition of 5-HT2B receptor (unknown origin) by radio ligand displacement assay relative to control; settings: concentration not given here
Sequence of 5-hydroxytryptamine receptor 2B (Homo sapiens) (P41595 whole entry): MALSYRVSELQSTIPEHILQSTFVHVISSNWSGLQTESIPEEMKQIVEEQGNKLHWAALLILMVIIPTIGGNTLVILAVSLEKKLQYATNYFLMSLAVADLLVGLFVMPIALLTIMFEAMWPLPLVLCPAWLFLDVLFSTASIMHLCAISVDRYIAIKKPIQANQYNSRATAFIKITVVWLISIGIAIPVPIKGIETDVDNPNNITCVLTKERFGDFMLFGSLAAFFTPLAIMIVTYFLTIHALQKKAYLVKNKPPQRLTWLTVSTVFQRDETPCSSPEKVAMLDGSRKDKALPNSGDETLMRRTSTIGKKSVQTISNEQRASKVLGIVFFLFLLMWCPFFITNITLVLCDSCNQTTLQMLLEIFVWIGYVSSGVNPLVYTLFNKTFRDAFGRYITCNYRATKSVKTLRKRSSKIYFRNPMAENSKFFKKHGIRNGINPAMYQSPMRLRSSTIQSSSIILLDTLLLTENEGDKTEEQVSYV

Sequence of GABA-B receptor (Q9UBS5 whole entry, the tested form may be a part): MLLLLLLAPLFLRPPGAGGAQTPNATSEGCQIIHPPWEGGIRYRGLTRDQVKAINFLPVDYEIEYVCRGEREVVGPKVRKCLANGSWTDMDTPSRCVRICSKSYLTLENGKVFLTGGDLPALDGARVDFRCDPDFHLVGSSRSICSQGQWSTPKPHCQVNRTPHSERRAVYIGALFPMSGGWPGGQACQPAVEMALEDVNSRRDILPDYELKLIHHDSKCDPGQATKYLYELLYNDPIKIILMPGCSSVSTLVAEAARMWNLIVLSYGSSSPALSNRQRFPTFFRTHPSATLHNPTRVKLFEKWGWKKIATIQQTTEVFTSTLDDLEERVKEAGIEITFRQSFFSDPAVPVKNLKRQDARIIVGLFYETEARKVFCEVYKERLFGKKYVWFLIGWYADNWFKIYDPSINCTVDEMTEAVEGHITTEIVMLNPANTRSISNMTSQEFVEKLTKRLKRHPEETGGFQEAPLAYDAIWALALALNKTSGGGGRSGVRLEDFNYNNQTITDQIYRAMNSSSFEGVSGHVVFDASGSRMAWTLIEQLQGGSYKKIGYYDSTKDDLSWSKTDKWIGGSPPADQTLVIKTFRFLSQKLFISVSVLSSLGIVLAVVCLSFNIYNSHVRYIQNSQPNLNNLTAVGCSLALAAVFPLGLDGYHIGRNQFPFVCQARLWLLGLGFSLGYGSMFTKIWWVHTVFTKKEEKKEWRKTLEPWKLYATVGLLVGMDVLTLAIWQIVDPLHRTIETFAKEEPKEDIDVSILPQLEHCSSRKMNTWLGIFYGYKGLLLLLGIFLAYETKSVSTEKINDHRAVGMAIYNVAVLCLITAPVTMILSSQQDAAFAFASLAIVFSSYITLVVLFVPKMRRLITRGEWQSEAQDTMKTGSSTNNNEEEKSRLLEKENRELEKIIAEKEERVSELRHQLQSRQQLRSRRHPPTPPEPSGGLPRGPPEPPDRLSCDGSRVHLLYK
Sequence of GABA-B receptor (O75899 whole entry, the tested form may be a part): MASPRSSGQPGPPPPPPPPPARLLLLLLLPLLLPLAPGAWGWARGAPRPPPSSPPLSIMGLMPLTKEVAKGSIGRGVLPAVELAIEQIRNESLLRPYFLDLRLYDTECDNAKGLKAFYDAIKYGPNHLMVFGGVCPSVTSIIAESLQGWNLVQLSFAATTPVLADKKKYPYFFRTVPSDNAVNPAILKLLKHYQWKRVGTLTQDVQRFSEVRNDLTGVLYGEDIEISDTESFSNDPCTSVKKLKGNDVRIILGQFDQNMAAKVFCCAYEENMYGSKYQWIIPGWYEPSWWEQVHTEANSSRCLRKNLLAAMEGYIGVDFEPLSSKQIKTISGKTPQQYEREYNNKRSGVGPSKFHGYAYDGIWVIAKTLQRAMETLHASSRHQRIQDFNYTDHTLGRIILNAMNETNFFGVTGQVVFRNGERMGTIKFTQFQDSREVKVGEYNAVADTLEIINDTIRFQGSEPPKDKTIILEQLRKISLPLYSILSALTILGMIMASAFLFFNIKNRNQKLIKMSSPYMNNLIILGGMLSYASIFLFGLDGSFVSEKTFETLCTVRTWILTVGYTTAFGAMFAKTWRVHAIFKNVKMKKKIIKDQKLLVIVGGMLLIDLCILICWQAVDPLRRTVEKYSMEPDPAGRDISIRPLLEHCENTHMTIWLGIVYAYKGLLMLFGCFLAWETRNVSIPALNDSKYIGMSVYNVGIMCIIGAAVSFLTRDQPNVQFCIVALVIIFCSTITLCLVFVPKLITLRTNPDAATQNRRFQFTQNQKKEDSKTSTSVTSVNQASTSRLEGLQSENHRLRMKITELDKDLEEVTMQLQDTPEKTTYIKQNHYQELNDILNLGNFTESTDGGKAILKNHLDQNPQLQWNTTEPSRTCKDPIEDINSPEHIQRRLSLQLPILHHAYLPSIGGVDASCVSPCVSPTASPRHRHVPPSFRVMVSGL

EC50 (GABA-B receptor): > 100 µM
SMILES: O=C1c2ccccc2C(=O)N1CC(O)C(F)(F)C(=O)C12CC3CC(CC(C3)C1)C2 (stereo unspecified)

EC50 (GABA-B receptor): 32.7 µM
EC50 [1]: > 100 µM
SMILES: O=C(c1ccc2ccccc2c1)C(F)(F)C(NS(=O)(=O)c1ccccc1)c1ccccc1 (stereo unspecified)

EC50 (GABA-B receptor): 57.4 µM
EC50 [1]: > 100 µM
SMILES: O=C(c1ccc(Cl)cc1)C(F)(F)C(NCc1ccccc1)c1ccccc1 (stereo unspecified)

EC50 (GABA-B receptor): > 100 µM
SMILES: CC(C)(C)OC(=O)NC(c1ccccc1)C(F)(F)C(=O)c1ccc2c(c1)OCO2 (stereo unspecified)

EC50 [1]: > 100 µM
SMILES: O=C(C12CC3CC(CC(C3)C1)C2)C(F)(F)C(O)/C=C/c1ccccc1 (stereo unspecified)

EC50 (GABA-B receptor): > 100 µM
SMILES: CCc1ccc(C(O)C(F)(F)C(=O)C23CC4CC(CC(C4)C2)C3)cc1 (stereo unspecified)
Activity (HEK293): Toxic

EC50 (GABA-B receptor): > 100 µM
SMILES: CC(C)CC(=O)C(F)(F)C(NC(=O)OC(C)(C)C)c1ccccc1 (stereo unspecified)

EC50 (GABA-B receptor): > 100 µM
SMILES: O=C(C12CC3CC(CC(C3)C1)C2)C(F)(F)C(NS(=O)(=O)c1ccccc1)c1ccccc1 (stereo unspecified)

inhibition [2]: < 30%
inhibition [3]: < 30%
inhibition [4]: < 30%
inhibition [5]: < 30%
inhibition [6]: < 30%
inhibition [7]: < 30%
inhibition [8]: < 30%
inhibition [9]: < 30%
EC50 (GABA-B receptor): 19.4 µM
inhibition [10]: < 30%
inhibition [11]: < 30%
inhibition [12]: < 30%
inhibition [13]: < 30%
inhibition [14]: < 30%
inhibition [15]: < 30%
inhibition [16]: < 30%
inhibition [17]: < 30%
inhibition [18]: < 30%
inhibition [19]: < 30%
inhibition [20]: < 30%
inhibition [21]: < 30%
inhibition [22]: < 30%
inhibition [23]: < 30%
inhibition [24]: < 30%
inhibition [25]: < 30%
inhibition [26]: < 30%
inhibition [27]: < 30%
inhibition [28]: < 30%
inhibition [29]: < 30%
inhibition [30]: < 30%
inhibition [31]: < 30%
inhibition [32]: < 30%
inhibition [33]: < 30%
inhibition [34]: < 30%
inhibition [35]: < 30%
EC50 [1]: > 100 µM
inhibition [36]: < 30%
inhibition [37]: < 30%
inhibition [38]: < 30%
inhibition [39]: < 30%
inhibition [40]: < 30%
inhibition [41]: < 30%
SMILES: CC(C)(C)OC(=O)NC(c1ccccc1)C(F)(F)C(=O)c1ccc2ccccc2c1 (stereo unspecified)

EC50 (GABA-B receptor): 91 µM
EC50 [1]: > 100 µM
SMILES: O=C(c1ccc2ccccc2c1)C(F)(F)C(NCc1ccccc1)c1ccccc1 (stereo unspecified)

EC50 (GABA-B receptor): > 100 µM
SMILES: O=C(C12CC3CC(CC(C3)C1)C2)C(F)(F)C(O)c1ccccc1 (stereo unspecified)
Activity (HEK293): Toxic

EC50 (GABA-B receptor): > 100 µM
SMILES: C/C=C/C=C/C(NCc1ccccc1)C(F)(F)C(=O)c1ccc2ccccc2c1 (stereo unspecified)

EC50 (GABA-B receptor): > 100 µM
SMILES: O=C(C12CC3CC(CC(C3)C1)C2)C(F)(F)C(O)c1ccc(Cl)cc1 (stereo unspecified)
Activity (HEK293): Toxic

EC50 (GABA-B receptor): > 100 µM
SMILES: CC(=O)c1ccc(C(O)C(F)(F)C(=O)c2ccccn2)cc1 (stereo unspecified)

inhibition [2]: < 30%
inhibition [3]: < 30%
inhibition [4]: < 30%
inhibition [5]: < 30%
inhibition [6]: < 30%
inhibition [7]: < 30%
inhibition [8]: < 30%
inhibition [9]: < 30%
inhibition [10]: < 30%
inhibition [11]: < 30%
inhibition [12]: < 30%
inhibition [13]: < 30%
inhibition [14]: < 30%
inhibition [15]: < 30%
inhibition [16]: < 30%
inhibition [17]: < 30%
inhibition [18]: < 30%
inhibition [19]: < 30%
inhibition [20]: < 30%
inhibition [21]: < 30%
inhibition [22]: < 30%
inhibition [23]: < 30%
inhibition [24]: < 30%
inhibition [25]: < 30%
inhibition [26]: < 30%
inhibition [27]: < 30%
inhibition [28]: < 30%
inhibition [29]: < 30%
inhibition [30]: < 30%
inhibition [31]: < 30%
inhibition [32]: < 30%
inhibition [33]: < 30%
inhibition [34]: < 30%
inhibition [35]: < 30%
inhibition [36]: < 30%
inhibition [37]: < 30%
inhibition [38]: < 30%
inhibition [39]: < 30%
inhibition [40]: < 30%
inhibition [41]: < 30%
SMILES: CC(=O)c1ccc(C(O)C(F)(F)C(=O)C23CC4CC(CC(C4)C2)C3)cc1 (stereo unspecified)
